The values that follow come from patent EP4610262A1, “MACROCYCLIC COMPOUND AS CDK9 INHIBITOR AND USE THEREOF” (Artivila Biopharma, priority 2022, dated 2024).

The target in assay [1] is CDK9 (Homo sapiens, UniProt P50750). In words: Inhibition of CDK9 kinase activity (caliper mobility shift assay). In kind it is biochemical. Conditions: for IC50: 10 concentrations from 10 µM, three-fold dilutions. As for the experimental part: Compounds were tested at a concentration of 10 nM with detection in duplicate wells, or tested at 10 concentrations starting from 10 µM with three-fold serial dilutions, with detection in duplicate wells.
CDK9, sequence (P50750 whole entry): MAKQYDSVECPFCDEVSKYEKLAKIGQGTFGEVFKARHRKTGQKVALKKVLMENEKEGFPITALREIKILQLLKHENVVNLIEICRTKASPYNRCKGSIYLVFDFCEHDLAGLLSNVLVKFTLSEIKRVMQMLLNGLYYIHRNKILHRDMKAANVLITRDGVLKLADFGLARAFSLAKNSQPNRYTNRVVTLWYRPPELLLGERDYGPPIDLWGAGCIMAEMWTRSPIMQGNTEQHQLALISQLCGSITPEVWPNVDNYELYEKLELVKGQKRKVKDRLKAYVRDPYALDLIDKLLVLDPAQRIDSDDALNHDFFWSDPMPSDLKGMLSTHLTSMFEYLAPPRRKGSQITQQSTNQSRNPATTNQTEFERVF
CDK9, sequence (O60563 whole entry partner): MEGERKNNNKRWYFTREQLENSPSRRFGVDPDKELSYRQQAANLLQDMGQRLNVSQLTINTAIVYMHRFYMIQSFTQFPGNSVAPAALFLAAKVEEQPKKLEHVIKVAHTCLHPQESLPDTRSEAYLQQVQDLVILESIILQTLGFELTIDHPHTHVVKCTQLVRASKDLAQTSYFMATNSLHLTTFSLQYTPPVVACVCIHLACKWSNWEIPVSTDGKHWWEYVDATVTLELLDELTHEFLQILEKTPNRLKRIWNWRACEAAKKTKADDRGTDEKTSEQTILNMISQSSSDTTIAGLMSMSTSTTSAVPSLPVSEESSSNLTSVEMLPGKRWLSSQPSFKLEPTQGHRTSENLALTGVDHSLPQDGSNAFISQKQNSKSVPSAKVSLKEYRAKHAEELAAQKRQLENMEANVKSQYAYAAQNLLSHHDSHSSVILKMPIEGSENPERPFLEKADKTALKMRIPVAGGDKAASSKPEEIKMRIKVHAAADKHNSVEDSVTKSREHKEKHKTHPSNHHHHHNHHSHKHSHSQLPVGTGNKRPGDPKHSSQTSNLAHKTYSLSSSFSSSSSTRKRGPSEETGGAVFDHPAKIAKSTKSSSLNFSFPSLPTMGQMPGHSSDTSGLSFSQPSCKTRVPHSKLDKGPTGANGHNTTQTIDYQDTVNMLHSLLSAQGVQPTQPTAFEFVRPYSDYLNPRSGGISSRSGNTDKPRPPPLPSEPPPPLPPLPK
The inhibitory effect of the compounds on the activity of CDK9 protein kinase was detected by the caliper mobility shift assay method. 250 nL of the compound at 100-fold final concentration was transferred to a target 384-well-plate with a dispenser Echo 550. A kinase solution at 2.5-fold final concentration was prepared using 1× kinase buffer. 10 µL of the kinase solution at 2.5-fold final concentration was added to the compound well and positive control well respectively. 10 µL of 1× kinase buffer was added to the negative control well. The 384-well plate was centrifuged at 1000 rpm for 30 seconds and incubated at room temperature for 10 minutes. A mixed solution of ATP and kinase substrate at 5/3-fold final concentration was prepared with 1× kinase buffer, and to the 384-well plate was added with 15 µL per well of the mixed solution of ATP and substrate at 5/3-fold final concentration to start the reaction. The plate was centrifuged at 1000 rpm for 30 seconds, shaken to mix evenly, and incubated at room temperature for a corresponding time. 30 µL of detection stopping solution was added to terminate the kinase reaction. The 384-well plate was centrifuged at 1000 rpm for 30 seconds and shaken to mix evenly. The conversion rate was read with Caliper EZ Reader. The percent conversion inhibition rate = (% positive control conversion rate mean - % sample conversion rate / (% positive control conversion rate mean - % negative control conversion rate mean). Among them: negative control wells represent the conversion rate readings of kinase buffer background wells; positive control wells represent the conversion rate readings of wells without inhibition by compound. With the log value of concentration as the x-axis and the percentage inhibition rate as the y-axis, a dose-response curve was fitted using the log (inhibitor) vs. response -Variable slope of the analysis software GraphPad Prism 5 to obtain the IC50 value of each compound on enzyme activity. Calculation formula: y=Bottom + (Top-Bottom)/(1+10^((LogIC50-x) × hillslope)), x: logarithm of inhibitor concentration; y: % inhibition rate.

The subject of assay [2] is MV-4-11. Kind of assay: CDK9 cell activity assay, cell growth inhibition (CellTiter-Glo, 72 hours). In kind it is cell-based. As to conditions: Homo sapiens, MV4-11. The procedure: (§1) In the CDK9 cell activity assay, the cell line MV-4-11 was cultured in IMDM culture medium containing 10% fetal bovine serum (containing 100 U/mL penicillin and 0.1 g/L streptomycin); the cell line HCC1187 was cultured in RPMI-1640 culture medium containing 10% fetal bovine serum (containing 100 U/mL penicillin and 0.1 g/L streptomycin); the cell line Mia Paca-2 was cultured in DMEM containing 10% fetal bovine serum and 2.5% horse serum (containing 100 U/mL penicillin and 0.1 g/L streptomycin); and the cell line A375 was cultured in RPMI-1640 culture medium containing 10% fetal bovine serum (containing 100 U/mL penicillin and 0.1 g/L streptomycin). All cells were cultured in an incubator with saturated humidity at 37°C with 5% CO2.
(§2) When MV-4-11 cells, HCC1187 cells, Mia Paca-2 cells, and A375 cells grew to 80%-90% confluence, they were digested with trypsin, resuspended, counted, and diluted to a certain cell density with complete medium. 100 µL of the cells was plated into each well of a 96-well plate, and the complete medium was used as a background control. The cells were cultured overnight in an incubator with saturated humidity at 37°C with 5% CO2. The compounds were diluted with DMSO to a final concentration of 200×. 3 µL of the stock solution of the above compounds in DMSO was added to 197 µL of complete medium, and 50 µL of the compound diluted in the medium was added to the cells of each well. The cells were cultured in an incubator with saturated humidity at 37°C with 5% CO2 for 72 hours. After 72 hours, the culture plates were placed at room temperature for equilibrium. 40 µL of CellTiter-Glo® reagent was added to each well. The plate was mixed evenly on a shaker for 2 minutes to lyse the cells then incubated at room temperature for 60 minutes to stabilize the chemiluminescent signal, and the chemiluminescence was read using a PE EnVision microplate reader. The inhibition rate on cell growth was calculated as % Inh = (DMSO well - compound treatment well) / (DMSO well - background well) x 100, and fitting was performed using GraphPad Prism 5 to obtain the IC50 values against cell growth.
On the technique in general: Cellular ATP, detected with luciferase, serves as a proxy for viable cell number.

Assay [3] concerns HCC1187. The description is as above. The class given is cell-based. Conditions: Homo sapiens. The procedure:
as §1, §2

Molecules are shown by their SMILES. Where only a bound is given, the exact number is not on record here.

As usually defined, the IC50 is the concentration that inhibits the measured activity by half. Broadly, the inhibition is the relative decrease from the control value, in per cent.

`Cc1nc2sc1-c1nc(ncc1F)Nc1cccc(c1)NCCOCCN2` [Compound 5, 2^5-fluoro-1^4-methyl-8-oxa-3,5,11-triaza-1(5,2)-thiazol-2(4,2)-pyrimidina-4(1,3)-benzenacyclodec aphane]: the concentration for half-maximal inhibition (IC50) in assay [1] is < 100 nM. The inhibition at 0.01 µM in assay [1] (compound at 10 nM, read-out: Inhibition rate on CDK9 kinase activity) lay in the range of 25 to 49%.

In the case of `Cc1nc2sc1-c1nc(ncc1F)Nc1cccc(c1)NC/C=C\CN2` [Compound 6, (Z)-2^5-fluoro-1^4-methyl-3,5,10-triaza-1(5,2)-thiazolin-2(4,2)-pyrimidina-4(1,3)-benzenacyclodec aphan-7-ene], the IC50 in assay [1] lay in the range of 100 to 500 nM.

With `CN1CCN(c2ccc3cc2COCCCCCNc2nc(ncc2Cl)N3)CC1` [Compound 21, 1^5-chloro-3^4-(4-methylpiperazin-1-yl)-5-oxa-2,11-diaza-1(2,4)-pyrimidina-3(1,3)-benzenacyclou ndecaphane], the IC50 in assay [1] lay in the range of 100 to 500 nM.

With `Cc1ccc2cc1-c1nc(ncc1Cl)Nc1cccc(c1)NCCCCN2` [Compound 22, 2^5-chloro-1^6-methyl-3,5,10-triaza-2(4,2)-pyrimidina-1,4(1,3)-dibenzocyclodecane], the IC50 in assay [1] is < 100 nM.

In the case of `c1cc2cc(c1)Nc1nccc(n1)NCCCCCNC2` [Compound 24, 2,5,11-triaza-1(2,4)-pyrimidina-3(1,3)-benzocycloundecaphane], the IC50 in assay [1] was < 100 nM.

On to `CN1CCCCCNCc2cccc(c2)Nc2ncc(Cl)c1n2` [Compound 25, 1^5-chloro-11-methyl-2,5,11-triaza-1(2,4)-pyrimidina-3(1,3)-benzocycloundecaphane], for which the IC50 in assay [1] was < 100 nM.

In the case of `Cc1ccc2cc1-c1nc(ncc1Cl)Nc1cnn(c1)CC/C=C\CN2` [Compound 27, (4^4E,7Z)-2^5-chloro-1^6-methyl-4^1hydro-3,10-diaza-2(4,2)-pyrimidina-4(4,1)-pyrazole-1(1,3)-benz enecyclodecane-7-ene], in assay [1], the IC50 was < 100 nM.

In the case of `Cc1ccc2cc1-c1nc(ncc1Cl)Nc1cnn(c1)CCCCCN2` [Compound 28, (E)-2^5-chloro-1^6-methyl-4^1hydro-3,10-diaza-2(4,2)-diaza-2(4,2)-pyrimidina-4(4,1)-pyrazola-1(1, 3)-benzenacyclodecaphane], the concentration for half-maximal inhibition (IC50) is < 100 nM in assay [1] and < 250 nM in assay [2].

Turning to `Cc1ccc2cc1-c1nc(ncc1F)Nc1cccc(c1)NC/C=C\CN2` [Compound 29, (Z)-2^5-fluoro-1^6-methyl-3,5,10-triaza-2(4,2)-pyrimidina-1,4(1,3)-dibenzenacyclodecaphan-7-ene], the concentration for half-maximal inhibition (IC50) in assay [1] was < 100 nM.

Consider `Cc1ccc2cc1-c1nc(ncc1F)Nc1cccc(c1)NCCCCN2` [Compound 30, 2^5-fluoro-1^6-methyl-3,5,10-triaza-2(4,2)-pyrimidina-1,4(1,3)-dibenzenacyclodecaphane], for which, in assay [1], the IC50 was < 100 nM.

With `Clc1cnc2nc1-c1cnn(c1)CC/C=C\CNc1cccc(c1)N2` [Compound 31, (1^4Z,7Z)-2^5-chloro-1^1H-3,5-diaza-2(4,2)-pyrimidina-1(4,1)-pyrazola-4(1,3)-benzenacyclodecaph an-7-ene], the IC50 in assay [1] was < 100 nM; in assay [3], 250 to 1000 nM; in assay [2] it was < 250 nM.

Turning to `Clc1cnc2nc1-c1cnn(c1)CCCCCNc1cccc(c1)N2` [Compound 32, (Z)-2^5-chloro-1^1H-3,5-diaza-2(4,2)-pyrimidina-1(4,1)-pyrazola-4(1,3)-benzenacyclodecaphane], in assay [1], the IC50 was < 100 nM.

For `Clc1cnc2nc1-c1cnn(c1)CCCCCCn1cc(c(Cl)n1)N2` [Compound 33, (1^4Z,4^4E,7Z)-2^5,4^3-chloro-1^1H,4^1H-3-aza-2(4,2)-pyrimidina-1,4(4,1)-bipyrazolacyclodecaphane], the IC50 in assay [1] fell in the range of 500 to 1000 nM.

On to `Clc1cnc2nc1-c1cccc(c1)OCCCCNCc1cccc(c1)N2` [Compound 34, 2^5-chloro-11-oxa-3,6-diaza-2(4,2)-pyrimidina-1,4(1,3)-dibenzenacycloundecaphane], for which the IC50 in assay [1] is < 100 nM.

For `Cc1ccc2cc1-c1nc(ncc1Cl)Nc1cccc(c1)CNCCCN2` [Compound 35, 2^5-chloro-1^6-methyl-3,6,10-triaza-2(4,2)-pyrimidina-1,4(1,3)-dibenenacyclodecaphane], the IC50 in assay [1] is < 100 nM; in assay [3], < 250 nM; in assay [2], < 250 nM.

For `Cc1ccc2cc1-c1nc(ncc1Cl)Nc1cccc(c1)CNCCCCO2` [Compound 36, 2^5-chloro-1^6-methyl-11-oxy-3,6-diaza-2(4,2)-pyrimidina-1,4(1,3)-dibenzocycloundecaphane], in assay [1], the IC50 is < 100 nM.

Consider `Fc1cnc2nc1-c1cccc(c1)NC/C=C\CNc1cccc(c1)N2` [Compound 37, (Z)-2^5-fluoro-3,5,10-triaza-2(4,2)-pyrimidina-1,4(1,3)-dibenzenacyclooctyna-7-ene], for which the IC50 in assay [1] was < 100 nM.

Take `Fc1cnc2nc1-c1cccc(c1)NCCCCNc1cccc(c1)N2` [Compound 38, 2^5-fluoro-3,5,10-triaza-2(4,2)-pyrimidina-1,4(1,3)-dibenzenacyclodecaphane]: the IC50 in assay [1] was < 100 nM; in assay [3], 250 to 1000 nM; in assay [2], 250 to 1000 nM.

For `COc1ccc2cc1-c1nc(ncc1F)Nc1cccc(c1)NC/C=C\CN2` [Compound 39, (Z)-2^5-fluoro-1^6-methoxy-3,5,10-triaza-2(4,2)-pyrimidina-1,4(1,3)-dibenzenacyclooctyna-7-ene], the IC50 in assay [1] is < 100 nM; in assay [3], 1000 to 5000 nM; in assay [2], 250 to 1000 nM.

In the case of `COc1ccc2cc1-c1nc(ncc1F)Nc1cccc(c1)NCCCCN2` [Compound 40, 2^5-fluoro-1^6-methoxy-3,5,10-triaza-2(4,2)-pyrimidina-1,4(1,3)-dibenzenacyclodecaphane], the IC50 in assay [1] is < 100 nM.

With `Cc1ccc2cc1-c1nc(ncc1Cl)Nc1cnn(c1)CCOCCN2` [Compound 41, (E)-2^5-chloro-1^6-methyl-4^1H-7-oxa-3,10-diaza-2(4,2)-pyrimidina-4(4,1)-pyrazola-1(1,3)-benzena cyclodecaphane], the IC50 in assay [1] was < 100 nM; in assay [3], < 250 nM; in assay [2], < 250 nM.

Regarding `Clc1cnc2nc1N1CCC(C1)NCCCNCc1cccc(c1)N2` (stereo not shown) [Compound 43, 2^5-chloro-3,6,10-triaza-2(4,2)-pyrimidina-1(1,3)-pyrrolidina-4(1,3)-benzenacyclodecaphane], the IC50 in assay [1] was 500 to 1000 nM.

Turning to `Clc1cnc2nc1N1CCC(C1)NCCCCNCc1cccc(c1)N2` (stereo not shown) [Compound 44, 2^5-chloro-3,6,11-triaza-2(4,2)-pyrimidina-1(1,3)-pyrrolidina-4(1,3)-benzenacycloalkaphane], the half-inhibitory concentration (IC50) in assay [1] was 500 to 1000 nM.

As to `Clc1cnc2nc1N1CCC(C1)OCCCNCc1cccc(c1)N2` (stereo not shown) [Compound 45, 2^5-chloro-10-oxa-3,6-diaza-2(4,2)-pyrimidina-1(1,3)-pyrrolidina-4(1,3)-benzenacyclodecaphane], the IC50 in assay [1] lay within 100 to 500 nM.

Turning to `Clc1cnc2nc1NCCCCCn1cc(cn1)N2` [Compound 47, (E)-1^5-chloro-3^1H-2,9-diaza-1(2,4)-pyrimidina-3(4,1)-pyrazolacyclononaphane], in assay [1], the IC50 was in the range of 100 to 500 nM.
